Measurements reported in US20240279278A1, “NMU RECEPTOR 2 AGONISTS” (Boehringer Ingelheim International GmbH, priority 2023, published 2024).
Starred links: 1 amine or outer side, 2 acyl side, 3 side chain; linkers in the order of their positions; H or OH if unused. Non-standard residues stand in square brackets, D forms with d. Residues, ends and D or L forms follow the SMILES beside them. *: point of attachment. Pipz(1-CH2CO,4-CH2CH2NH) = O=C(CN1CCN(CCN[*:1])CC1)[*:2]; C18 diacid = O=C(O)CCCCCCCCCCCCCCCCC(=O)*; γGlu = O=C(O)[C@H](CCC(=O)[*:2])N[*:1]; 3Pal = N[C@@H](Cc1cccnc1)C(=O)O; NMeL = CN[C@@H](CC(C)C)C(=O)O; Nle = CCCC[C@H](N)C(=O)O; Sar = CNCC(=O)O

Tests used:
Format in all cases: cell-based
[1] = biological target: T1, human NMUR1 receptor (Homo sapiens, UniProt Q9HB89); test: IP1 Gq HTRF assay, activation of human NMUR1 in buffer; details: CHO-K1 cells expressing human NMUR1, stimulation buffer with 0.1% BSA; read-out: EC50 (hNMUR1) buffer
T1 construct: expressed in transfected cells; host or cells: CHO-K1
T1 sequence (Q9HB89 1-426): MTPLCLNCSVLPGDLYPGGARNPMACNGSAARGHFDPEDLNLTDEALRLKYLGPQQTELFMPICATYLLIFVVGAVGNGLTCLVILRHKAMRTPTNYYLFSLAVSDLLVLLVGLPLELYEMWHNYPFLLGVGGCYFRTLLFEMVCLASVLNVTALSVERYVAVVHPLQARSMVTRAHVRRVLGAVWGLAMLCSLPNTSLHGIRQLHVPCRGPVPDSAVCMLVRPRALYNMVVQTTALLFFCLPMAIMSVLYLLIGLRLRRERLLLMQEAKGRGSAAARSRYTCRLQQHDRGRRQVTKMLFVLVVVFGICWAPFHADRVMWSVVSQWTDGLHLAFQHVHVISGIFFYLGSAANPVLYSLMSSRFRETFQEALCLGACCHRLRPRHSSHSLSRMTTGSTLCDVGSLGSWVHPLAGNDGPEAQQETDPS
In short: (§1)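 IP-One HTRF competition (665/620 nm ratio) read after 1 h agonist exposure at 37 °C in pH 7.4 HEPES/HBSS stimulation buffer containing 50 mM LiCl, 0.1% BSA, 1% DMSO. Cells: CHO-K1 stably expressing human NMUR2 or NMUR1. EC50 by 4-parameter nonlinear regression of 8-point curves.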

[2] = biological target: T2, human NMUR2 receptor (Homo sapiens, UniProt Q9GZQ4); test: IP1 Gq HTRF assay, activation of human NMUR2 in buffer; design: expressed in transfected cells; host or cells: CHO-K1; details: CHO-K1 cells expressing human NMUR2, stimulation buffer with 0.1% BSA; read-out: EC50 (hNMUR2) buffer
T2 sequence (Q9GZQ4 whole entry): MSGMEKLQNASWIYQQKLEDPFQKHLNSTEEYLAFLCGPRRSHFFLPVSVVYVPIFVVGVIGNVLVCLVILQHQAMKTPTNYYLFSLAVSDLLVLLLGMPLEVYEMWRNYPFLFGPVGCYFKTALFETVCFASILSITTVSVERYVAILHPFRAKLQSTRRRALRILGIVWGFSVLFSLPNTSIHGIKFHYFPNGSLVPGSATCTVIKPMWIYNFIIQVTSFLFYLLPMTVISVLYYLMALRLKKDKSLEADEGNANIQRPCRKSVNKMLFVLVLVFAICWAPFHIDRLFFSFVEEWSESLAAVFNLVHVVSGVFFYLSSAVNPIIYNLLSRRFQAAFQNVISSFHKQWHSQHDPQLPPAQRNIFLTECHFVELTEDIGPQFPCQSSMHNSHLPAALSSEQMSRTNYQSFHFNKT
In short: as §1

[3] = biological target: T2, human NMUR2 receptor; test: IP1 Gq HTRF assay, activation of human NMUR2 in human plasma; design: expressed in transfected cells; host or cells: CHO-K1; details: CHO-K1 cells expressing human NMUR2, 100% human plasma; read-out: EC50 (hNMUR2) human plasma
In short: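 EC50 obtained via 4-parameter sigmoidal regression of HTRF IP-One signal (665 nm/620 nm), which falls as intracellular IP1 rises. Stimulation: 1 h, 37° C, peptides in human plasma plus 50 mM LiCl, 1% DMSO final, on NMUR2-expressing CHO-K1 cells, 8 concentrations.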

SMILES | EC50 [1] [nM] | EC50 [2] [nM] | EC50 [3] [nM]
CCCC[C@H](NC(=O)[C@H](CC(C)C)N(C)C(=O)[C@H](Cc1ccccc1)NC(=O)[C@H](Cc1ccc(O)cc1)NC(=O)CN1CCN(CCNC(=O)CN(C)C(=O)CN(C)C(=O)CN(C)C(=O)CN(C)C(=O)CN(C)C(=O)CN(C)C(=O)CN(C)C(=O)CN(C)C(=O)CN(C)C(=O)CN(C)C(=O)CN(C)C(=O)CN(C)C(=O)CN(C)C(=O)CN(C)C(=O)CN(C)C(=O)CC[C@H](NC(=O)CC[C@H](NC(=O)CC[C@H](NC(=O)CCCCCCCCCCCCCCCCCCC(=O)O)C(=O)O)C(=O)O)C(=O)O)CC1)C(=O)N[C@@H](CCCCN)C(=O)N1CCC[C@H]1C(=O)N[C@@H](CCCNC(=N)N)C(=O)NCC(N)=O [Compound 49, C20DA-gGlu3-Sar15-AEPipAc-Tyr-Phe-NMeLeu-Nle-Lys-Pro-Arg-Gly-NH2] (HELM PEPTIDE1{[O=C(O)CCCCCCCCCCCCCCCCCCC(=O)[*:2]].[gGlu].[gGlu].[gGlu].[Sar].[Sar].[Sar].[Sar].[Sar].[Sar].[Sar].[Sar].[Sar].[Sar].[Sar].[Sar].[Sar].[Sar].[Sar].[O=C(CN1CCN(CCN[*:1])CC1)[*:2]].Y.F.[meL].[Nle].K.P.R.G.[am]}$$$$V2.0) | 1300 | 11 | 25.2
CCCC[C@H](NC(=O)[C@H](CC(C)C)N(C)C(=O)[C@H](Cc1ccccc1)NC(=O)[C@H](Cc1ccc(O)cc1)NC(=O)CN1CCN(CCNC(=O)CN(C)C(=O)CN(C)C(=O)CN(C)C(=O)CN(C)C(=O)CN(C)C(=O)CN(C)C(=O)CN(C)C(=O)CN(C)C(=O)CN(C)C(=O)CN(C)C(=O)CN(C)C(=O)CN(C)C(=O)CN(C)C(=O)CN(C)C(=O)CN(C)C(=O)CC[C@H](NC(=O)CC[C@H](NC(=O)CC[C@H](NC(=O)CCCCCCCCCCCCCCCCCCC(=O)O)C(=O)O)C(=O)O)C(=O)O)CC1)C(=O)N[C@@H](CCCCN)C(=O)N(C)[C@@H](C)C(=O)N[C@@H](CCCNC(=N)N)C(=O)NCC(N)=O [Compound 50, C20DA-gGlu3-Sar15-AEPipAc-Tyr-Phe-NMeLeu-Nle-Lys-NMeAla-Arg-Gly-NH2] (HELM PEPTIDE1{[O=C(O)CCCCCCCCCCCCCCCCCCC(=O)[*:2]].[gGlu].[gGlu].[gGlu].[Sar].[Sar].[Sar].[Sar].[Sar].[Sar].[Sar].[Sar].[Sar].[Sar].[Sar].[Sar].[Sar].[Sar].[Sar].[O=C(CN1CCN(CCN[*:1])CC1)[*:2]].Y.F.[meL].[Nle].K.[meA].R.G.[am]}$$$$V2.0) | > 1000 | 23 | 69.9
CCCC[C@H](NC(=O)[C@H](CC(C)C)N(C)C(=O)[C@H](Cc1ccccc1)NC(=O)[C@H](Cc1ccc(O)cc1)NC(=O)CN1CCN(CCNC(=O)CN(C)C(=O)CN(C)C(=O)CN(C)C(=O)CN(C)C(=O)CN(C)C(=O)CN(C)C(=O)CN(C)C(=O)CN(C)C(=O)CN(C)C(=O)CN(C)C(=O)CN(C)C(=O)CN(C)C(=O)CN(C)C(=O)CN(C)C(=O)CN(C)C(=O)CC[C@H](NC(=O)CC[C@H](NC(=O)CC[C@H](NC(=O)CCCCCCCCCCCCCCCCC(=O)O)C(=O)O)C(=O)O)C(=O)O)CC1)C(=O)N[C@@H](Cc1c[nH]cn1)C(=O)N1CCC[C@H]1C(=O)N[C@@H](CCCNC(=N)N)C(=O)NCC(N)=O [Compound 51, C18DA-gGlu3-Sar15-AEPipAc-Tyr-Phe-NMeLeu-Nle-His-Pro-Arg-Gly-NH2] (HELM PEPTIDE1{[O=C(O)CCCCCCCCCCCCCCCCC(=O)[*:2]].[gGlu].[gGlu].[gGlu].[Sar].[Sar].[Sar].[Sar].[Sar].[Sar].[Sar].[Sar].[Sar].[Sar].[Sar].[Sar].[Sar].[Sar].[Sar].[O=C(CN1CCN(CCN[*:1])CC1)[*:2]].Y.F.[meL].[Nle].H.P.R.G.[am]}$$$$V2.0) | > 1000 | 19 | 112
CCCC[C@H](NC(=O)[C@H](CC(C)C)N(C)C(=O)[C@H](Cc1ccccc1)NC(=O)[C@H](Cc1ccc(O)cc1)NC(=O)CN1CCN(CCNC(=O)CN(C)C(=O)CN(C)C(=O)CN(C)C(=O)CN(C)C(=O)CN(C)C(=O)CN(C)C(=O)CN(C)C(=O)CN(C)C(=O)CN(C)C(=O)CN(C)C(=O)CN(C)C(=O)CN(C)C(=O)CN(C)C(=O)CN(C)C(=O)CN(C)C(=O)CC[C@H](NC(=O)CC[C@H](NC(=O)CC[C@H](NC(=O)CCCCCCCCCCCCCCCCC(=O)O)C(=O)O)C(=O)O)C(=O)O)CC1)C(=O)N(C)[C@@H](CCCNC(=N)N)C(=O)N1CCC[C@H]1C(=O)N[C@@H](CCCNC(=N)N)C(=O)NCC(N)=O [Compound 52, C18DA-gGlu3-Sar15-AEPipAc-Tyr-Phe-NMeLeu-Nle-NMeArg-Pro-Arg-Gly-NH2] (HELM PEPTIDE1{[O=C(O)CCCCCCCCCCCCCCCCC(=O)[*:2]].[gGlu].[gGlu].[gGlu].[Sar].[Sar].[Sar].[Sar].[Sar].[Sar].[Sar].[Sar].[Sar].[Sar].[Sar].[Sar].[Sar].[Sar].[Sar].[O=C(CN1CCN(CCN[*:1])CC1)[*:2]].Y.F.[meL].[Nle].[meR].P.R.G.[am]}$$$$V2.0) | 200 | 1.4 | 6.4
CCCC[C@H](NC(=O)[C@H](CC(C)C)N(C)C(=O)[C@H](Cc1ccccc1)NC(=O)[C@H](Cc1ccc(O)cc1)NC(=O)CN1CCN(CCNC(=O)CN(C)C(=O)CN(C)C(=O)CN(C)C(=O)CN(C)C(=O)CN(C)C(=O)CN(C)C(=O)CN(C)C(=O)CN(C)C(=O)CN(C)C(=O)CN(C)C(=O)CN(C)C(=O)CN(C)C(=O)CN(C)C(=O)CN(C)C(=O)CN(C)C(=O)CC[C@H](NC(=O)CC[C@H](NC(=O)CC[C@H](NC(=O)CCCCCCCCCCCCCCCCC(=O)O)C(=O)O)C(=O)O)C(=O)O)CC1)C(=O)N(C)[C@@H](CCCNC(=N)N)C(=O)N(C)[C@@H](C)C(=O)N[C@@H](CCCNC(=N)N)C(=O)NCC(N)=O [Compound 53, C18DA-gGlu3-Sar15-AEPipAc-Tyr-Phe-NMeLeu-Nle-NMeArg-NMeAla-Arg-Gly-NH2] (HELM PEPTIDE1{[O=C(O)CCCCCCCCCCCCCCCCC(=O)[*:2]].[gGlu].[gGlu].[gGlu].[Sar].[Sar].[Sar].[Sar].[Sar].[Sar].[Sar].[Sar].[Sar].[Sar].[Sar].[Sar].[Sar].[Sar].[Sar].[O=C(CN1CCN(CCN[*:1])CC1)[*:2]].Y.F.[meL].[Nle].[meR].[meA].R.G.[am]}$$$$V2.0) | 1300 | 4 | 24.9
CCCC[C@H](NC(=O)[C@H](CC(C)C)N(C)C(=O)[C@H](Cc1ccccc1)NC(=O)[C@H](Cc1ccc(O)cc1)NC(=O)CN1CCN(CCNC(=O)CN(C)C(=O)CN(C)C(=O)CN(C)C(=O)CN(C)C(=O)CN(C)C(=O)CN(C)C(=O)CN(C)C(=O)CN(C)C(=O)CN(C)C(=O)CN(C)C(=O)CN(C)C(=O)CN(C)C(=O)CN(C)C(=O)CN(C)C(=O)CN(C)C(=O)CC[C@H](NC(=O)CC[C@H](NC(=O)CC[C@H](NC(=O)CCCCCCCCCCCCCCCCC(=O)O)C(=O)O)C(=O)O)C(=O)O)CC1)C(=O)N[C@@H](Cc1cccnc1)C(=O)N1CCC[C@H]1C(=O)N[C@@H](CCCNC(=N)N)C(=O)NCC(N)=O [Compound 54, C18DA-gGlu3-Sar15-AEPipAc-Tyr-Phe-NMeLeu-Nle-3Pal-Pro-Arg-Gly-NH2] ({C18 diacid-γGlu-γGlu-γGlu}-[Sar][Sar][Sar][Sar][Sar][Sar][Sar][Sar][Sar][Sar][Sar][Sar][Sar][Sar][Sar][Pipz(1-CH2CO,4-CH2CH2NH)]YF[NMeL][Nle][3Pal]PRG-NH2) | > 1000 | 28 | 122
